Measurements: paper PMC5564600 (Oncotarget, 2017)

What was measured:
Assay in all cases: biochemical
Format in all cases: binding
panel of 442 kinases [1] = biological target: T1, panel of 442 kinases (Homo sapiens, UniProt P49841); conditions: kinase GSK3B; for remaining activity at 1 µM: read-out: % of control at 1 µM
T1 construct: purchased Ambit Biosciences (scanMAXX KINOMEscan)

panel of 442 kinases [2] = biological target: T2, panel of 442 kinases (Homo sapiens, UniProt P16591); conditions: FER; for remaining activity at 1 µM: read-out: % of control at 1 µM
T2 construct: purchased Ambit Biosciences (scanMAXX KINOMEscan)

panel of 442 kinases [3] = biological target: T3, panel of 442 kinases (Homo sapiens, UniProt Q9BZL6); conditions: kinase PRKD2; for remaining activity at 1 µM: read-out: PRKD2 (% of control at 1 µM)
T3 construct: purchased Ambit Biosciences (scanMAXX KINOMEscan)
T3 sequence (Q9BZL6 1-878): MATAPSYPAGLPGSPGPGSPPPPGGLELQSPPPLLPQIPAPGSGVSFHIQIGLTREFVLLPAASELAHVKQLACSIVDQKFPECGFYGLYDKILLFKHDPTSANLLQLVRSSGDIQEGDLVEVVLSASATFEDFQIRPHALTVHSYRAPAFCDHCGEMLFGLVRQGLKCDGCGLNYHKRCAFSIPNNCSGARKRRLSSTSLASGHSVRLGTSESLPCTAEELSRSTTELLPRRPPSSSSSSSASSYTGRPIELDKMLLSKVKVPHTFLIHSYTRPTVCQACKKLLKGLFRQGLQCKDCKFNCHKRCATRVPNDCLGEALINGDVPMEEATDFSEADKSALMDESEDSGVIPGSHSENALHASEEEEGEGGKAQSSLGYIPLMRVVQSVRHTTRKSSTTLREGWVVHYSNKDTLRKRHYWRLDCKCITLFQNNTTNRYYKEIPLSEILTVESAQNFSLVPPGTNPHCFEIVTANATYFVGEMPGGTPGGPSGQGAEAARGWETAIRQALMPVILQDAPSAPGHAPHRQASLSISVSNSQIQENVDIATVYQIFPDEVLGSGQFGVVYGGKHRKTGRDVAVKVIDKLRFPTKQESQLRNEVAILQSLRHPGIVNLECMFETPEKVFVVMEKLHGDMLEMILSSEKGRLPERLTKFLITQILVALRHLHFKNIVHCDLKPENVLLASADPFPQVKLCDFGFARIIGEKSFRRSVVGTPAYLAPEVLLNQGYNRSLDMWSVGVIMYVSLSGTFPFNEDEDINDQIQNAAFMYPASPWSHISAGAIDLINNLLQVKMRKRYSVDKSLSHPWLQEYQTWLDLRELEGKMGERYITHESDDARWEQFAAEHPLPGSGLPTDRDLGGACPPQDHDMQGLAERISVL

panel of 442 kinases [4] = biological target: T4, panel of 442 kinases (Homo sapiens, UniProt O76039); conditions: CDKL5; for remaining activity at 1 µM: read-out: % of control at 1 µM
T4 construct: purchased Ambit Biosciences (scanMAXX KINOMEscan)
T4 sequence (O76039 1-960): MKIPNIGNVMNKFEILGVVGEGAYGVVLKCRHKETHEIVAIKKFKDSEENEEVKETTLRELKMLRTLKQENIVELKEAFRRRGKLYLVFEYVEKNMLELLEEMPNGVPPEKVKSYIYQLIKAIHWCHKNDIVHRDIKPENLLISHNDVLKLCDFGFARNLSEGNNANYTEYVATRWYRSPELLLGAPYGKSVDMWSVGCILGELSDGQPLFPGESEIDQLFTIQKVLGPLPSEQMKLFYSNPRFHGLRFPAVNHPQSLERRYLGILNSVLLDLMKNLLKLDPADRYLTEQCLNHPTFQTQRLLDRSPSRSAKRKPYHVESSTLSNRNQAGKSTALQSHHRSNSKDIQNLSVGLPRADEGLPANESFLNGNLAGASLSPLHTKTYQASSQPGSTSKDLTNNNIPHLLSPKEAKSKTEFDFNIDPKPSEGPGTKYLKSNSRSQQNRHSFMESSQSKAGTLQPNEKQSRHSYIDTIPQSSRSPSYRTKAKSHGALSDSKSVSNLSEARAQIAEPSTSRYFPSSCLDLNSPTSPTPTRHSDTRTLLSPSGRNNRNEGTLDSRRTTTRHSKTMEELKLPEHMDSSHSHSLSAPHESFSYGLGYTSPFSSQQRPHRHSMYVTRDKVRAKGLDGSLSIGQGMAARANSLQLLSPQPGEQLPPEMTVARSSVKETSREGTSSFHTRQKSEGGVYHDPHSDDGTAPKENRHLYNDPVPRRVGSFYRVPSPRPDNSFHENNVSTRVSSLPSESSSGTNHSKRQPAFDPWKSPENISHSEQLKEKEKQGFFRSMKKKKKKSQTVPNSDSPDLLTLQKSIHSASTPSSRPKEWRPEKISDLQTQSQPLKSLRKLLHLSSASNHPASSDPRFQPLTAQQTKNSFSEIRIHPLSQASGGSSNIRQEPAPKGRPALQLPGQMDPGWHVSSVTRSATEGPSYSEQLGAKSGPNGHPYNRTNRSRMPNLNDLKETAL

panel of 442 kinases [5] = biological target: T5, panel of 442 kinases (Homo sapiens, UniProt Q8IVW4); conditions: CDKL3; for remaining activity at 1 µM: read-out: % of control at 1 µM
T5 construct: purchased Ambit Biosciences (scanMAXX KINOMEscan)

panel of 442 kinases [6] = biological target: T6, panel of 442 kinases (Homo sapiens, UniProt P08069); conditions: kinase IGF1R; for remaining activity at 1 µM: read-out: % of control at 1 µM
T6 construct: purchased Ambit Biosciences (scanMAXX KINOMEscan)

panel of 442 kinases [7] = biological target: T7, panel of 442 kinases (Homo sapiens, UniProt P04049); conditions: kinase RAF1; for remaining activity at 1 µM: read-out: RAF1 (% of control at 1 µM)
T7 construct: purchased Ambit Biosciences (scanMAXX KINOMEscan)

panel of 442 kinases [8] = biological target: T8, panel of 442 kinases (Homo sapiens, UniProt Q14289); conditions: kinase PYK2; for remaining activity at 1 µM: read-out: PYK2 (% of control at 1 µM)
T8 construct: purchased Ambit Biosciences (scanMAXX KINOMEscan)

panel of 442 kinases [9] = biological target: T9, panel of 442 kinases (Homo sapiens, UniProt P09769); conditions: FGR; for remaining activity at 1 µM: read-out: % of control at 1 µM
T9 construct: purchased Ambit Biosciences (scanMAXX KINOMEscan)

panel of 442 kinases [10] = biological target: T10, panel of 442 kinases (Homo sapiens, UniProt Q15759); conditions: kinase p38-beta; for remaining activity at 1 µM: read-out: % of control at 1 µM
T10 construct: purchased Ambit Biosciences (scanMAXX KINOMEscan)

panel of 442 kinases [11] = biological target: T11, panel of 442 kinases (Homo sapiens, UniProt Q13554); conditions: CAMK2B; for remaining activity at 1 µM: read-out: % of control at 1 µM
T11 construct: purchased Ambit Biosciences (scanMAXX KINOMEscan)

panel of 442 kinases [12] = biological target: T12, panel of 442 kinases (Homo sapiens, UniProt Q06187); conditions: BTK; for remaining activity at 1 µM: read-out: % of control at 1 µM
T12 construct: purchased Ambit Biosciences (scanMAXX KINOMEscan)

[13] = 10 µM, read-out: % of control at 10 µM

T6 sequence (P08069 31-1367): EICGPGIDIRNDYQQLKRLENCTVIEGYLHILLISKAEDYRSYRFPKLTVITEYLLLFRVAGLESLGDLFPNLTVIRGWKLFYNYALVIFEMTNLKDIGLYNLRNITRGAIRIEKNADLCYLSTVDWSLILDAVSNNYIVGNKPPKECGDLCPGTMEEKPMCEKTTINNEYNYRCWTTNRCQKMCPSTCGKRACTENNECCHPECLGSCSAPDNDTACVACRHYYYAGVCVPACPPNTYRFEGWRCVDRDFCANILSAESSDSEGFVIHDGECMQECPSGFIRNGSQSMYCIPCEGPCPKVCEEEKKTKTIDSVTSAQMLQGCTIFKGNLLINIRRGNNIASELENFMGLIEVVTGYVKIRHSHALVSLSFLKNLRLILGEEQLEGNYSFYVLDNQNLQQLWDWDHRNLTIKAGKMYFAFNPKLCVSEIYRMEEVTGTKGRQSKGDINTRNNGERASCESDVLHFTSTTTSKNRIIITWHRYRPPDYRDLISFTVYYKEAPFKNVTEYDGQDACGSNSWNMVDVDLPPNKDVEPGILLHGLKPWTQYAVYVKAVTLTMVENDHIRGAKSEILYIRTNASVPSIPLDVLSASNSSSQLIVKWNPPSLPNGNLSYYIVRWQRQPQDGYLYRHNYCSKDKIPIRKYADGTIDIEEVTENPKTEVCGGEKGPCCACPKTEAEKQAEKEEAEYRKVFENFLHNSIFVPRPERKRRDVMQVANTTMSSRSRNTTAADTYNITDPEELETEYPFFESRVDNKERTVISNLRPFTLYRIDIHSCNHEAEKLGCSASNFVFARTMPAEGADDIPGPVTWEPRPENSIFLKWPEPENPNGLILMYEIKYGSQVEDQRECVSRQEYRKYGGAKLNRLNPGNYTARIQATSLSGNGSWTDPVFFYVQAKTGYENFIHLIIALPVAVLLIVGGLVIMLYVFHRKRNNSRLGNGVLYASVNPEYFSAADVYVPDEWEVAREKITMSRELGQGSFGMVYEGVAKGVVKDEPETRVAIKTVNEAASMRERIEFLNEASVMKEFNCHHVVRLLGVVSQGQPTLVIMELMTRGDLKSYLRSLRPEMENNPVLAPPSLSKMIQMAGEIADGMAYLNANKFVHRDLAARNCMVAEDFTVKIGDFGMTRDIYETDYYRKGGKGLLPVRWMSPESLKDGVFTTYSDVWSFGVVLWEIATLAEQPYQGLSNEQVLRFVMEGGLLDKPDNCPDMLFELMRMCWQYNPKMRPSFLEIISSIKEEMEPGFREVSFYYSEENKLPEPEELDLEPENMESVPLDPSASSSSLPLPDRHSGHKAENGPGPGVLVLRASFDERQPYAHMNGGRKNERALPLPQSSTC
T9 sequence (P09769 whole entry): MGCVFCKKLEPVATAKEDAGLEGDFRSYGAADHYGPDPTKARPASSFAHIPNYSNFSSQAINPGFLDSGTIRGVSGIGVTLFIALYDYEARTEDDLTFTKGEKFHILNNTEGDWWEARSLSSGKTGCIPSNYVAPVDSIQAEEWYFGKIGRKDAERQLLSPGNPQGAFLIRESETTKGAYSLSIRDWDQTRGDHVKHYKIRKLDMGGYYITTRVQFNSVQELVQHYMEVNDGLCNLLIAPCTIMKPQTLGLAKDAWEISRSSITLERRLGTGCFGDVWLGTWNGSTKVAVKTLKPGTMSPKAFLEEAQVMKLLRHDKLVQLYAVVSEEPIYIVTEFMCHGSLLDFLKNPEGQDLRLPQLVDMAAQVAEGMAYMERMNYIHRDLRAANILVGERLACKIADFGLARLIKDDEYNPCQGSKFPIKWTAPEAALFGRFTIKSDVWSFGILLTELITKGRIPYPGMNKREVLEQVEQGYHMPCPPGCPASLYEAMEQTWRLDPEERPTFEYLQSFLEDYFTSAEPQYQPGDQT
T10 sequence (Q15759 whole entry): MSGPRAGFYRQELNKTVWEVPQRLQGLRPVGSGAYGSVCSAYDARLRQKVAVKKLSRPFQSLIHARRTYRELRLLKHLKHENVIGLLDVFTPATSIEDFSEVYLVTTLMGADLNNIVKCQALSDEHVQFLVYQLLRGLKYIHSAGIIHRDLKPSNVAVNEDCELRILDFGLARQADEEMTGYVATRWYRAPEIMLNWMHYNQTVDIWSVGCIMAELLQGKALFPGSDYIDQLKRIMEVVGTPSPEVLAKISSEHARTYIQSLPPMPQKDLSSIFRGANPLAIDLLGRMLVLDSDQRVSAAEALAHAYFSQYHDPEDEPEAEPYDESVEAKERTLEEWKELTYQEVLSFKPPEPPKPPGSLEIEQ
T11 sequence (Q13554 whole entry): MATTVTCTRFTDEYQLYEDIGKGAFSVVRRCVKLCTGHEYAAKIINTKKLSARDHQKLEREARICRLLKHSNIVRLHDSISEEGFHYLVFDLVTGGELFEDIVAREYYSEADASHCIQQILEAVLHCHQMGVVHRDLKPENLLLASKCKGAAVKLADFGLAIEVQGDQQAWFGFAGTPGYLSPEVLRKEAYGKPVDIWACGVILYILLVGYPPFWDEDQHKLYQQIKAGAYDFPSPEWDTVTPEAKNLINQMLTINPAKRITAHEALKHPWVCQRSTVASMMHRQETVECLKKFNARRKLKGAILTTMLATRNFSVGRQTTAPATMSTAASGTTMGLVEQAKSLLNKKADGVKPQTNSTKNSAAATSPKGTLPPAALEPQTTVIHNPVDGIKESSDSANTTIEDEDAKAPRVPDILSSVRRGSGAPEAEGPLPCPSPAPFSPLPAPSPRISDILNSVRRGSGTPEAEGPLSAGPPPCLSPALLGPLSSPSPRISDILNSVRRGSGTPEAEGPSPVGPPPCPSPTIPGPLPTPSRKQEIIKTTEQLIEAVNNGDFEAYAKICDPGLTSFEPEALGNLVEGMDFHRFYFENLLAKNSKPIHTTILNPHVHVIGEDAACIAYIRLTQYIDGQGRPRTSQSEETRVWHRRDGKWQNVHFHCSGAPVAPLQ
T5 sequence (Q8IVW4 whole entry): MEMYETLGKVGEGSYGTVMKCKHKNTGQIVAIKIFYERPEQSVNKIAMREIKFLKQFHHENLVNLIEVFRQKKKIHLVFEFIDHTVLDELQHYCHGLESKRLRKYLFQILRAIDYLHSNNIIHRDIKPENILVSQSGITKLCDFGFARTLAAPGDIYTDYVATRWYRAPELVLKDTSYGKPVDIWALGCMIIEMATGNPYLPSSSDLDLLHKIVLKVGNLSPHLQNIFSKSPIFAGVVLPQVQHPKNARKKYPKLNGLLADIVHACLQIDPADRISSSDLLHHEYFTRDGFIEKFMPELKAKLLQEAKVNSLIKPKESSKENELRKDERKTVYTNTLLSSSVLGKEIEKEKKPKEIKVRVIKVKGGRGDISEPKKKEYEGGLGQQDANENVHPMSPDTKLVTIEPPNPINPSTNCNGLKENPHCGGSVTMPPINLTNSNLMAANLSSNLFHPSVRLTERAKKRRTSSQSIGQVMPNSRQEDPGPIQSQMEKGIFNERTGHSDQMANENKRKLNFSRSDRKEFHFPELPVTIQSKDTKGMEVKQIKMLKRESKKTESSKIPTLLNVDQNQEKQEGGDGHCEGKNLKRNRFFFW
T8 sequence (Q14289 whole entry): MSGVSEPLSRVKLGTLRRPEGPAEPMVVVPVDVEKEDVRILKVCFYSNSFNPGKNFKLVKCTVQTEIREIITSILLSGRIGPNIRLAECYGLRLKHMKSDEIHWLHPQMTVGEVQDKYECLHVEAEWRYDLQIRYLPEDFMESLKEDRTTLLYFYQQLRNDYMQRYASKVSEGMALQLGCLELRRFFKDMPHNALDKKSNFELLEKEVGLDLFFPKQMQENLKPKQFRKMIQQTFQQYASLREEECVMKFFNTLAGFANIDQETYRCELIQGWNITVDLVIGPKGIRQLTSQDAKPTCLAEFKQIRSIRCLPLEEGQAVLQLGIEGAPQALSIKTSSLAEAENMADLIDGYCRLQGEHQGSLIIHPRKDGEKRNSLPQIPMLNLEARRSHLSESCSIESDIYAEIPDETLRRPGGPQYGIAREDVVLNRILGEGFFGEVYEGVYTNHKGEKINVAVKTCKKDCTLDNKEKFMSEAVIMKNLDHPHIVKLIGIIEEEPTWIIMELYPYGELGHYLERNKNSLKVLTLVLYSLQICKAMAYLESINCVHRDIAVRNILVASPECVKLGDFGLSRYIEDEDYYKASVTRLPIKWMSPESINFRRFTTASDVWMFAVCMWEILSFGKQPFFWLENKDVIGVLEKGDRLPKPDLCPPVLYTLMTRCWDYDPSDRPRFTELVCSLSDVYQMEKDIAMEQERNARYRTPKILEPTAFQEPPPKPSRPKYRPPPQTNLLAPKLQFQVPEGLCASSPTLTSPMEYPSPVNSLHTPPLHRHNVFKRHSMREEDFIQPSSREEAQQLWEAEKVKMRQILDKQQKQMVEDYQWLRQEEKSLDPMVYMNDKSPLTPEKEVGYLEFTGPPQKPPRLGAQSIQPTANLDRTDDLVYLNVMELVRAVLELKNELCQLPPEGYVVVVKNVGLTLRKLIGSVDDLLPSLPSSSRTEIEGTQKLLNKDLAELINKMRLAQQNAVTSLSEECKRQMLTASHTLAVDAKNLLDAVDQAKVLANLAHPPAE
T1 sequence (P49841 whole entry): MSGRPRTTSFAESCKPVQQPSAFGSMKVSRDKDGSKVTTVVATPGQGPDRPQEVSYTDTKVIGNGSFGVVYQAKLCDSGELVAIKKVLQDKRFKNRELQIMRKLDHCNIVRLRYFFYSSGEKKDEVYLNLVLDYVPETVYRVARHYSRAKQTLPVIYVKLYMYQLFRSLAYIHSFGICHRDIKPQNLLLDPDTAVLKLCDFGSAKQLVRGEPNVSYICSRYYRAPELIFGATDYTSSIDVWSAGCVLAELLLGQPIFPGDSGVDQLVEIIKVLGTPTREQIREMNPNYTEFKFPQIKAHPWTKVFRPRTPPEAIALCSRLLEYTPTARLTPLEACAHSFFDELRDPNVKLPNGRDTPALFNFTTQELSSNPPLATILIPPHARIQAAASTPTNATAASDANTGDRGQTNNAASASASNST

What does the source list for `Nc1cc(C(F)(F)F)c(-c2cc(N3CCOCC3)nc(N3CCOCC3)n2)cn1` [Buparlisib]?
remaining activity at 1 µM (panel of 442 kinases [1]): 86%; remaining activity at 10 µM (panel of 442 kinases [1]; [13]): 100%; remaining activity at 1 µM (panel of 442 kinases [2]): 100%; remaining activity at 10 µM (panel of 442 kinases [2]; [13]): 100%; remaining activity at 1 µM (panel of 442 kinases [3]): 100%; remaining activity at 10 µM (panel of 442 kinases [3]; 10 µM, read-out: PRKD2 (% of control at 10 µM)): 100%; remaining activity at 1 µM (panel of 442 kinases [4]): 88%; remaining activity at 10 µM (panel of 442 kinases [4]; [13]): 100%; remaining activity at 1 µM (panel of 442 kinases [5]): 92%; remaining activity at 10 µM (panel of 442 kinases [5]; [13]): 100%; remaining activity at 1 µM (panel of 442 kinases [6]): 100%; remaining activity at 10 µM (panel of 442 kinases [6]; [13]): 100%; remaining activity at 1 µM (panel of 442 kinases [7]): 100%; remaining activity at 10 µM (panel of 442 kinases [7]; 10 µM, read-out: RAF1 (% of control at 10 µM)): 100%; remaining activity at 1 µM (panel of 442 kinases [8]): 100%; remaining activity at 10 µM (panel of 442 kinases [8]; 10 µM, read-out: PYK2 (% of control at 10 µM)): 100%; remaining activity at 1 µM (panel of 442 kinases [9]): 100%; remaining activity at 10 µM (panel of 442 kinases [9]; [13]): 100%; remaining activity at 1 µM (panel of 442 kinases [10]): 99%; remaining activity at 10 µM (panel of 442 kinases [10]; [13]): 91%; remaining activity at 1 µM (panel of 442 kinases [11]): 80%; remaining activity at 10 µM (panel of 442 kinases [11]; [13]): 79%; remaining activity at 1 µM (panel of 442 kinases [12]): 71%; remaining activity at 10 µM (panel of 442 kinases [12]; [13]): 89%

Which remaining activity at 1 µM (panel of 442 kinases [1]) does the source give for `Cn1c(=O)n(-c2ccc(C(C)(C)C#N)cc2)c2c3cc(-c4cnc5ccccc5c4)ccc3ncc21` [Dactolisib, 2-methyl-2-[4-(3-methyl-2-oxo-8-quinolin-3-yl-2,3-dihydroimidazo[4,5-c]quinolin-1-yl)-phenyl] propionitrile] here?
The remaining activity at 1 µM was 100%.

And the remaining activity at 1 µM (panel of 442 kinases [2])?
Its remaining activity at 1 µM is 60%.

And the remaining activity at 1 µM (panel of 442 kinases [3])?
The remaining activity at 1 µM was 93%.

What about the remaining activity at 1 µM (panel of 442 kinases [4]) of the same molecule?
Its remaining activity at 1 µM is 100%.

What about the remaining activity at 1 µM (panel of 442 kinases [5]) of the same molecule?
Its remaining activity at 1 µM is 57%.

What about the remaining activity at 1 µM (panel of 442 kinases [6]) of the same molecule?
Its remaining activity at 1 µM is 95%.

And the remaining activity at 1 µM (panel of 442 kinases [7])?
Its remaining activity at 1 µM is 94%.

And the remaining activity at 1 µM (panel of 442 kinases [8])?
The remaining activity at 1 µM was 86%.

What about the remaining activity at 1 µM (panel of 442 kinases [9]) of the same molecule?
The remaining activity at 1 µM was 81%.

What about the remaining activity at 1 µM (panel of 442 kinases [10]) of the same molecule?
Its remaining activity at 1 µM is 99%.

What about the remaining activity at 1 µM (panel of 442 kinases [11]) of the same molecule?
Its remaining activity at 1 µM is 87%.

What does the source list for `COc1ncc(-c2ccc3nccc(-c4ccnnc4)c3c2)cc1NS(=O)(=O)c1ccc(F)cc1F` [Omipalisib]?
remaining activity at 1 µM (panel of 442 kinases [1]): 89%; remaining activity at 1 µM (panel of 442 kinases [2]): 100%; remaining activity at 1 µM (panel of 442 kinases [3]): 100%; remaining activity at 1 µM (panel of 442 kinases [4]): 100%; remaining activity at 1 µM (panel of 442 kinases [5]): 100%; remaining activity at 1 µM (panel of 442 kinases [6]): 100%; remaining activity at 1 µM (panel of 442 kinases [7]): 100%; remaining activity at 1 µM (panel of 442 kinases [8]): 100%; remaining activity at 1 µM (panel of 442 kinases [9]): 84%; remaining activity at 1 µM (panel of 442 kinases [10]): 100%; remaining activity at 1 µM (panel of 442 kinases [11]): 100%; remaining activity at 1 µM (panel of 442 kinases [12]): 100%

Which remaining activity at 1 µM (panel of 442 kinases [1]) does the source give for `FC(F)c1nc2ccccc2n1-c1nc(N2CCOCC2)nc(N2CCOCC2)n1` [ZSTK474, 2-(difluoromethyl)-1-[4,6-di(4-morpholinyl)-1,3,5-triazin-2-yl]-1H-benzimidazole] here?
Its remaining activity at 1 µM is 91%.

And the remaining activity at 1 µM (panel of 442 kinases [2])?
The remaining activity at 1 µM was 55%.

What about the remaining activity at 1 µM (panel of 442 kinases [3]) of the same molecule?
Its remaining activity at 1 µM is 93%.

What about the remaining activity at 1 µM (panel of 442 kinases [4]) of the same molecule?
Its remaining activity at 1 µM is 100%.

What about the remaining activity at 1 µM (panel of 442 kinases [5]) of the same molecule?
Its remaining activity at 1 µM is 100%.

And the remaining activity at 1 µM (panel of 442 kinases [6])?
The remaining activity at 1 µM was 100%.

What about the remaining activity at 1 µM (panel of 442 kinases [7]) of the same molecule?
Its remaining activity at 1 µM is 73%.

What about the remaining activity at 1 µM (panel of 442 kinases [8]) of the same molecule?
The remaining activity at 1 µM was 100%.

What about the remaining activity at 1 µM (panel of 442 kinases [9]) of the same molecule?
The remaining activity at 1 µM was 87%.

What about the remaining activity at 1 µM (panel of 442 kinases [10]) of the same molecule?
Its remaining activity at 1 µM is 70%.

What about the remaining activity at 1 µM (panel of 442 kinases [11]) of the same molecule?
The remaining activity at 1 µM was 100%.

And the remaining activity at 1 µM (panel of 442 kinases [12])?
Its remaining activity at 1 µM is 100%.
